Here are results for 8 compounds from patent US6290974A, “Protein ingredient for carrying lipophilic nutrients” (priority 1998, dated 2001).

Each structure is given as a SMILES string. Read-outs that look alike come from different tables or passages of the source.

In assay [1] the target is T1, β-lactoglobulin (β-Lg) (Bos taurus, UniProt P02754).
T1 construct: Isolation of β-Lg from Whey; from tissue; host or cells: whey (milk), purified by bioselective adsorption on N-retinyl-Celite
T1 sequence (P02754 17-178): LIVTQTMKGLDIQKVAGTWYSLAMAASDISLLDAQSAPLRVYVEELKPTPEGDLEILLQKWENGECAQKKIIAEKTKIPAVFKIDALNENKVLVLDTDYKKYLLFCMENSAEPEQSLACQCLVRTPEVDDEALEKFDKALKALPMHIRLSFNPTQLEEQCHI
The experiment in a line: Fluorescence titration of β-Lg with linoleic acid, conjugated linoleic acid and its methyl ester (Trp19 enhancement). The format is binding. The following applies: 10 μM β-Lg. From the text:
The titration data can be used to evaluate the equilibrium dissociation constant and the number of binding sites per monomer as has been previously described. […] Biophys. […] The linear regression equation
(§1) PT a=(1/n)[RT a/(1-a)]-Kd /n
(§2) is used to calculate n, the number of binding sites per molecule of protein and Kd, the apparent dissociation constant. In this equation, PT is total protein concentration, and RT is total ligand concentration.

Assay [2] deals with T1, β-lactoglobulin (β-Lg). The following applies: From Frapin et al., J. Protein Chem. 12, 443 (1993), cited from earlier work.
The target in assay [3] is T1, β-lactoglobulin (β-Lg). Briefly: Fluorescence titration of β-Lg with ligands (Equation [1]; Kd and n). The format is binding. As to the method: (§3) Fluorescence spectra were recorded at 23 ° C. with a System 3 Scanning Spectrofluorometer (Optical Technology Devices, Inc., Elmsford, N.Y.) using the ratio mode. Excitation and emission spectra were obtained with 1 μM solutions of β-Lg in 50 mM sodium phosphate, pH 7.0, both in the presence and absence of 2 μM concentrations of the various ligands. Titration of β-Lg with the various ligands was quantified by measuring the fluorescence quenching of the protein tryptophanyl residues (excitation at 287 nm, emission measured at 332 nm). The spectrofluorometer cuvette contained 2.5 ml of 1 μM β-Lg in the phosphate buffer to which 2.5-μl increments of the ligand solution in ethanol or ethyl ether were added with a micropipette. Dufour et al., (1990) FEBS Lett. 277, 223. […] Cogan et al., (1976) Eur. J. Biochem. 65, 71.
(§4) The titration can also be followed by measuring the increase in vitamin D or cholesterol fluorescence that was due to energy transfer from the tryptophanyl residue. Thus, with excitation at 287 nm, emission was measured at 412 nm for vitamin D or 390 nm for cholesterol.
The titration data can be used to evaluate the equilibrium dissociation constant and the number of binding sites per monomer as has been previously described. Cogan et al., (1976) Eur. J. Biochem. 65, 71; Dufour and Haertle, (1991) Biochim. Biophys. Acta 1079, 316; Wang et al., (1997) J. Dairy Sci. 80, 1047. The linear regression equation
as §1, §2
Cho et al., (1994) J. Biol. Chem. 269, 11102; Dufour and Haertle, (1991) Biochim. Biophys. Acta 1079, 316; Wang et al., (1997) J. Dairy Sci. 80, 1047. […] Cho et al., (1994) J. Biol. Chem. 269, 11102; Dufour and Haertle, (1991) Biochim. Biophys. Acta 1079, 316; Wang et al., (1997) J. Dairy Sci. 80, 1047.
(§5) Possible binding of vitamin D3 to β-Lg was also investigated by recording the fluorescence emission at 412 nm as a function of the excitation wavelength for vitamin solutions with and without added β-Lg (FIG. 4). […] In a titration experiment, the protein fluorescence at 332 nm with excitation at 287 nm was determined as a function of vitamin D3 concentration (FIG. 3). […] Also, the increase of vitamin D3 fluorescence at 412 nm with excitation at 287 nm for varying vitamin concentrations can be plotted according to Equation [1] as shown in FIG. 5B.
Dufour and Haertle, (1991) Biochim. Biophys. Acta 1079, 316; Wang et al., (1997) J. Dairy Sci. 80, 1047.
The potential binding of both cholesterol and 7-dehydrocholesterol to β-Lg was examined by fluorescence spectroscopy, essentially as described above for vitamin D (Example 3).
The titration data were used to calculate the equilibrium dissociation constant (Kd) and the number of binding sites per β-Lg monomer (n), as described in Example 3.

The target of assay [4] is T1, β-lactoglobulin (β-Lg). The experiment in a line: Fluorescence emission/excitation spectra of β-Lg with and without ligand. The assay is classed as binding. The protocol: as §3, §4
Binding of hydrophobic ligands in proximity to Trp19 results in energy transfer between this protein residue and the ligand, and thus changes in the fluorescence emission spectra can be used to follow complex formation. Fluorescence emission spectra of β-Lg with and without bound vitamin D2 that result from excitation of tryptophanyl residues at 287 nm are shown in FIG. 1.
as §5
The potential binding of both cholesterol and 7-dehydrocholesterol to β-Lg was examined by fluorescence spectroscopy, essentially as described above for vitamin D (Example 3). […] A plot of the data that were obtained with varying cholesterol concentrations according to Equation [1] from Example 3 was similar to that for vitamin D3, shown in FIG. 5.
Studies were undertaken to evaluate whether other fat-soluble vitamins bind to β-Lg. Fluorescence emission spectra of β-Lg in the presence and absence of vitamin E, vitamin K1, or vitamin K2 were obtained essentially as described in Example 3.

[5] abbreviates: Kd, Table 2, β-Lg titration as in Example 3.
Where [6] appears, read: 1 μM β-Lg, 50 mM phosphate pH 7.0, 23 °C, triplicate titrations (vitamin D2: five; ergosterol: single).

Turning to `CCCCC/C=C\C/C=C\CCCCCCCC(=O)O` [LA, linoleic acid], the Kd on β-lactoglobulin (β-Lg) [1] (27 °C, read-out: order of Kd (text, Example 7)) was approximately 100 nM; on β-lactoglobulin (β-Lg) [1] (pH 7, 27 °C, enhancement at 332 nm, excitation 287 nm, read-out: Kd, Table 3), 143 nM; at β-lactoglobulin (β-Lg) [2] (read-out: Kd, Table 3, from Frapin et al.), 190 nM. For the same compound, the “n, Table 3” value on β-lactoglobulin (β-Lg) [1] (pH 7, 27 °C, enhancement at 332 nm, excitation 287 nm) is recorded as 1.01 mol/mol β-LG. For the same compound, on β-lactoglobulin (β-Lg) [2], the “n, Table 3, from Frapin et al.” value is reported as 0.83 mol/mol β-LG.

For `Cc1c(C)c2c(c(C)c1O)CCC(C)(CCCC(C)CCCC(C)CCCC(C)C)O2` (stereo not drawn) [Vitamin E, α-tocopherol], on β-lactoglobulin (β-Lg) [3], the “n values, molecules bound per β-Lg monomer (Example 6)” value stood at 1. Further, the Kd at β-lactoglobulin (β-Lg) [3] (Kd values (Example 6)) was 91 nM; on β-lactoglobulin (β-Lg) [3] (setting [5]), 91 nM; on β-lactoglobulin (β-Lg) [3] (order of magnitude of Kd (Example 6)), approximately 1 nM. Further, the “n, Table 2” value at β-lactoglobulin (β-Lg) [3] (β-Lg titration as in Example 3) amounted to 1.0 mol/mol β-LG. Further, on β-lactoglobulin (β-Lg) [4], the “β-Lg fluorescence, 280 to 300 nm” value is listed as “increase”. Besides, the “β-Lg fluorescence, 300 to 360 nm” value at β-lactoglobulin (β-Lg) [4] was “no change”.

Turning to `CC(C)[C@@H](C)/C=C/[C@@H](C)[C@H]1CC[C@H]2C3=CC=C4C[C@@H](O)CC[C@]4(C)[C@H]3CC[C@]12C` [Ergosterol, ergosterol], the “mol bound per mol of protein (Example 4)” value at β-lactoglobulin (β-Lg) [3] was 2 mol~mol^-1. The “n (number of binding sites per molecule of protein), Table 1” value on β-lactoglobulin (β-Lg) [3] (setting [6]) is 2.02 mol/mol of protein. On β-lactoglobulin (β-Lg) [3] (1 μM β-Lg, 50 mM phosphate pH 7.0, 23 °C, triplicate titrations (vitamin D2: five; ergosterol: single), read-out: Kd (apparent dissociation constant), Table 1), the Kd stood at 6.25 nM. In addition, on β-lactoglobulin (β-Lg) [3] (compared with other ligands of Table 1 or the retinoids), the “binding affinity, comparative (in words)” value is “significantly greater”.

On β-lactoglobulin (β-Lg) [3] (setting [5]), `CCCCCCCCCCCCCCCC(=O)O` [Palmitic acid] returned a Kd of 490 nM. Further, the “n, Table 2” value at β-lactoglobulin (β-Lg) [3] (β-Lg titration as in Example 3) amounted to 1.2 mol/mol β-LG.

Compound `CC1=C(/C=C/C(C)=C/C=C/C(C)=C/C(=O)O)C(C)(C)CCC1` [Retinoic acid, retinoic acid] gave a Kd on β-lactoglobulin (β-Lg) [3] (setting [5]) of 17 nM. Moreover, the “n, Table 2” value at β-lactoglobulin (β-Lg) [3] (β-Lg titration as in Example 3) is on record as 0.9 mol/mol β-LG.

Take `CC1=C(C/C=C(\C)CCC[C@H](C)CCC[C@H](C)CCCC(C)C)C(=O)c2ccccc2C1=O` [Vitamin K1, 2-methyl-3-phytyl-1,4-napthho-quinone]: the “n values, molecules bound per β-Lg monomer (Example 6)” value at β-lactoglobulin (β-Lg) [3] came to 1.9. For the same compound, the “molecules bound per molecule of protein” value on β-lactoglobulin (β-Lg) [3] (per molecule of protein / β-Lg monomer) is recorded as approximately 2 molecules. The Kd was 90 nM on β-lactoglobulin (β-Lg) [3] (read-out: Kd values (Example 6)); approximately 1 nM on β-lactoglobulin (β-Lg) [3] (read-out: order of magnitude of Kd (Example 6)); 90 nM at β-lactoglobulin (β-Lg) [3] (β-Lg titration as in Example 3, read-out: Kd, Table 2). Further, the “n, Table 2” value at β-lactoglobulin (β-Lg) [3] (β-Lg titration as in Example 3) is 1.9 mol/mol β-LG. For the same compound, the “β-Lg fluorescence, 280 to 300 nm” value on β-lactoglobulin (β-Lg) [4] was “increase”. Also, at β-lactoglobulin (β-Lg) [4], the “β-Lg fluorescence, 300 to 360 nm” value is reported as “quenched”.

As for `CC(C)CCC[C@@H](C)[C@H]1CC[C@H]2[C@@H]3CC=C4C[C@@H](O)CC[C@]4(C)[C@H]3CC[C@]12C` [Cholesterol, cholesterol], the Kd on β-lactoglobulin (β-Lg) [3] and at β-lactoglobulin (β-Lg) [3] (setting [5]) was 34.9 nM in each case. The “n (number of binding sites per molecule of protein), Table 1” value at β-lactoglobulin (β-Lg) [3] (setting [6]) is 2.36 mol/mol of protein. Besides, the “n, Table 2” value at β-lactoglobulin (β-Lg) [3] (β-Lg titration as in Example 3) turned out to be 2.4 mol/mol β-LG. In addition, on β-lactoglobulin (β-Lg) [4] (emission 390 nm), the “energy transfer between protein tryptophanyl residues and ligand” value is “energy was transferred”.

`CCCCCCCCCCCCCCCC(=O)OC/C=C(C)/C=C/C=C(C)/C=C/C1=C(C)CCCC1(C)C` [Retinyl palmitate (R), Retinyl palmitate]: the “n, Table 2” value at β-lactoglobulin (β-Lg) [3] (β-Lg titration as in Example 3) is 0.8 mol/mol β-LG.
